From publication PMC10017155 (Aging and Disease, 2023)

Assays:
isoD7-Aβ16 = test: NMR titration, isoD7-Aβ16 with HAEE and Zn2+; type: binding; conditions: addition of Zn2+ without HAEE; disappearance of NMR signal (Supplementary Fig. 3); also ref [9]
Description: Peptides Aβ16, H6R-Aβ16 and isoD7-Aβ16 at the concentration of 0.2 - 8mM were dissolved in 10-20 mM bis-Tris-d19 (2,2-Bis(hydroxymethyl)-2,2′,2"-nitrilotrie-thanol-d19 with 98% ^2D enrichment) buffer solution (pH 6.8). Sodium salt of 3-(trimethylsilyl) propionic-2,2,3,3-d4 acid (DSS) at a concentration of 10-20 μM was added as the standard. NMR spectra were measured at 278 K in 90% H2O/10% D2O with Bruker AVANCE 600 MHz spectrometer equipped with triple resonance (^1H, ^13C and ^15N) pulsed field z gradient probe. 1D NMR spectra were processed and analyzed using the Mnova software (Mestrelab Research, Spain). In order to monitor peptide-peptide interactions NMR titration experiments were carried out. […] 1D spectra were recorded for each titration point.

[1] = compared with normal Aβ; ref [9]; cited from earlier work
From the text: We hypothesized that the contribution of isoD7-Aβ to the development of AD is based on the formation of zinc-bound complexes that promote pathological aggregation of Aβ (Fig. 1A).

transgenic mice = conditions: in contrast to normal Aβ; ref [23], [24]; cited from earlier work
From the text: The development of AD comprises a cascade of pathogenic processes in brain tissue. Some of the major elements of this cascade are the aggregation of beta-amyloid (Aβ) with the formation of neurotoxic oligomers, hyperphosphorylation of tau, and neuroinflammation. […] In the sporadic form of AD, accounting for 95% of disease cases, the molecular triggers for the pathological cascade remain unknown. […] We hypothesized that the contribution of isoD7-Aβ to the development of AD is based on the formation of zinc-bound complexes that promote pathological aggregation of Aβ (Fig. 1A). […] Interaction of HAEE with beta-amyloid. (A) A model for the contribution of isoD7-Aβ to AD pathology, and the possible ways of preventing its deleterious effects. Aβ spontaneously converts into isoD7-Aβ, which is accumulated over age, likely due to reduced Aβ clearance. Isomerized Aβ promotes AD pathology, potentially via formation of Zn-bound complexes serving as the seeds for a generation of neurotoxic oligomers. Treatment with anti-isoAβ antibodies is a promising therapeutic strategy already showing effectiveness in AD model mice ^9.

H6R-Aβ16 = conditions: ref [9]; cited from earlier work
From the text: The dimeric form has a well-resolved characteristic signal of the V12 methyl group at 0.2 ppm, which allows for a quantitative assessment of the dimeric state. […] Thus, the ...

Ac-DAEFRH[isoD]SGYEVHHQK-NH2 [isoD7-Aβ16, reference compound]
Effect of Zn2+ on isoD7-Aβ16 (oligomerization; NMR signal) (isoD7-Aβ16): almost complete oligomerization and precipitation
Zinc-dependent aggregation [1]: increased capacity
Amyloidosis in transgenic mice (transgenic mice): stimulate amyloidosis

Ac-DAEFRRDSGYEVHHQK-NH2 [H6R-Aβ16, Aβ1-16 variant with the English (H6R) mutation]
State of H6R-Aβ16 in the presence of Zn2+ (H6R-Aβ16): mixture of monomeric and dimeric forms
